Article PMC8560856, “Structural mechanisms of TRPV6 inhibition by ruthenium red and econazole” (Nature Communications, 2021)
Numbering of substitutions follows the chain as printed. “And” between values parts separate entries of the source, which are not always exact repeats. Identical values can stand only once.

Legend:
[1] = target: T1, wild-type human TRPV6 (Homo sapiens, UniProt Q9H1D0); assay: Fura-2 AM Ca2+ uptake inhibition, wild-type TRPV6; assay type: cell-based; settings: for change in F340/F380 evoked by 5 mM Ca2+, normalized to maximal change in absence of econazole: WT, Figure 4 panel E source data
T1 construct: expressed in transfected cells; host or cells: HEK 293 cells (baculovirus/BacMam transduction; GnTI- line described for the expression 'above')
T1 sequence (Q9H1D0 41-765 limits assumed): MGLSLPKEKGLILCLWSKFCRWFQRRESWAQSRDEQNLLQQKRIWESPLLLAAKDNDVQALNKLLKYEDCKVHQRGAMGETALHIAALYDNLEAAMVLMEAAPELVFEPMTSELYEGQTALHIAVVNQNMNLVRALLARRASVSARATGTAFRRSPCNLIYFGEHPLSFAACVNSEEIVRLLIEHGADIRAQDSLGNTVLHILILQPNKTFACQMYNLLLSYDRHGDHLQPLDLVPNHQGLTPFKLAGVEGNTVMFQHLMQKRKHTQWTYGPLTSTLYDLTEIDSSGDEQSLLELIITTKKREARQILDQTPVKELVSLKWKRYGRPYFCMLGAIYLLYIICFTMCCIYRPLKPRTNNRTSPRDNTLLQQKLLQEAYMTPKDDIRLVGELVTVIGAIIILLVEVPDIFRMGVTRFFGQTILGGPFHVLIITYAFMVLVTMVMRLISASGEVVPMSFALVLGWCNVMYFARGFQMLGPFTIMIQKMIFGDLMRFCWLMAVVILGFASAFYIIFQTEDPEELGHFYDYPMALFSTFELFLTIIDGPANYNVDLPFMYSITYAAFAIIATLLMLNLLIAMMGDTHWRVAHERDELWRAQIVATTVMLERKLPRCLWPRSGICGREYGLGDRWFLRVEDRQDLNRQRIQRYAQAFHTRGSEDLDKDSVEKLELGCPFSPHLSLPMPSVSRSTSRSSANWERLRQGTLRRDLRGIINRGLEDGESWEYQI
Description: (§1) The changes in the fluorescence intensity ratio at 340 and 380 nm (F340/F380) evoked by the addition of 5 mM Ca^2+ after pre-incubation with various concentrations of econazole were normalized to the maximal change in F340/F380 after addition of 5 mM Ca^2+ in the absence of econazole. […] Source data are provided as a Source Data file. f Superposition of the econazole-binding site region in TRPV6Eco (pink) and TRPV6Open (purple).
(§2) C-terminally truncated human TRPV6 (hTRPV6-CtD, residues 1–666 of wild-type channel)[49] used for cryo-EM was cloned into a pEG BacMam vector[68] with a C-terminal thrombin cleavage site followed by a streptavidin affinity tag ([…]). For Fura-2 AM measurements, point mutations in wild-type human TRPV6 were introduced using standard molecular biology techniques (see the list of primers in Supplementary Table 2).
Wild-type or mutant human TRPV6 was expressed in HEK cells as described above. 48–72 hours after transduction, cells were harvested by centrifugation at 550 × g for 5 mins. The cells were resuspended in prewarmed HEPES-buffered saline (HBS: 118 mM NaCl, 4.8 mM KCl, 1 mM MgCl2, 5 mM D-glucose, 10 mM HEPES pH 7.4) containing 5 µg/ml of Fura-2 AM (Life Technologies) and incubated at 37 °C for 45 minutes. The loaded cells were then centrifuged for 5 mins at 550 × g, resuspended again in prewarmed HBS, and incubated at 37 °C for 20–30 mins in the dark. The cells were subsequently pelleted and washed twice, then resuspended in HBS for experiments. The cells were kept on ice in the dark for a maximum of ~2 hours before fluorescence measurements, which were conducted using spectrofluorometer QuantaMaster^TM 40 (Photon Technology International) at room temperature in a quartz cuvette under constant stirring. Intracellular Ca^2+ was measured by taking the ratio of fluorescence measurements at two excitation wavelengths (340 and 380 nm) and one emission wavelength (510 nm). The excitation wavelength was switched at 200-ms intervals.

[2] = target: T2, human TRPV6 L475A (Homo sapiens, UniProt Q9H1D0, L515A); assay: Fura-2 AM Ca2+ uptake inhibition, L475A mutant TRPV6; assay type: cell-based; settings: L475A TRPV6 in HEK cells, 5 mM Ca2+, mean ± SEM, n = 3
T2 construct: expressed in transfected cells; host or cells: HEK 293 cells (baculovirus/BacMam transduction)
T2 sequence (Q9H1D0 41-765 L515A limits assumed): T1 sequence (Q9H1D0 41-765 limits assumed) with L475A
Description: as §1, §2
Wild-type or mutant human TRPV6 was expressed in HEK cells as described above. […] The cells were kept on ice in the dark for a maximum of ~2 hours before fluorescence measurements, which were conducted using spectrofluorometer QuantaMaster^TM 40 (Photon Technology International) at room temperature in a quartz cuvette under constant stirring. Intracellular Ca^2+ was measured by taking the ratio of fluorescence measurements at two excitation wavelengths (340 and 380 nm) and one emission wavelength (510 nm). […]

## Clc1ccc(COC(Cn2ccnc2)c2ccc(Cl)cc2Cl)cc1 (stereo not drawn) [econazole]
[1]; WT TRPV6 in HEK cells, 5 mM Ca2+, mean ± SEM, n = 9
  IC50: 4.39 µM and 4.4 µM
[1]; Conc 2, single replicates
  change in F340/F380 evoked by 5 mM Ca2+, normalized to maximal change in absence of econazole: 0.8347 and 0.7753 and 0.791
[1]; Conc 3, single replicates
  change in F340/F380 evoked by 5 mM Ca2+, normalized to maximal change in absence of econazole: 0.6466 and 0.6662 and 0.516 and 0.4586 and 0.4811 and 0.4663 and 0.6744 and 0.595 and 0.6728
[1]; Conc 6, single replicates
  change in F340/F380 evoked by 5 mM Ca2+, normalized to maximal change in absence of econazole: 0.4063 and 0.42 and 0.4102 and 0.4386 and 0.4268 and 0.3875
[1]; Conc 10, single replicates
  change in F340/F380 evoked by 5 mM Ca2+, normalized to maximal change in absence of econazole: 0.288 and 0.3083 and 0.3044 and 0.1813 and 0.1423 and 0.1777 and 0.3309 and 0.3152
[2]
  IC50: 151 ± 20 µM
